Measured values taken from ChEMBL document CHEMBL1124835, “Structure-activity relationships of antineoplastic agents in multidrug resistance” (J Med Chem, 1990).

Assays:
CCRF-CEM [1] = test: Effect on cross resistance of CCRF-CEM cells resistant to vincristine expressed as log of ratio of molar concentration of compound inducing 50% growth inhibition in resistant to sensitive cells; assay type: functional, Homo sapiens
physchem = details: octanol/water, pH 7.4
CCRF-CEM [2] = test: Effect on cross resistance of CCRF-CEM cells resistant to vincristine expressed as as log of ratio of molar concentration of compound inducing 50% growth inhibition in resistant to sensitive cells; assay type: functional, Homo sapiens

SMILES	Log CR (CCRF-CEM [1])	logD (physchem)	Log CR (CCRF-CEM [2])
COc1cc([C@@H]2c3cc4c(cc3[C@H](O)[C@H]3COC(=O)[C@H]23)OCO4)cc(OC)c1OC [PODOFILOX]	0.07	2.01	–
COc1cc([C@@H]2c3cc4c(cc3[C@@H](O[C@@H]3O[C@@H]5CO[C@@H](c6cccs6)O[C@H]5[C@H](O)[C@H]3O)[C@H]3COC(=O)[C@H]23)OCO4)cc(OC)c1O [TENIPOSIDE]	–	1.22	1.56
